Reference: patent publication US20240239804A1, “FUROINDAZOLE DERIVATIVES AS ANTAGONISTS OR INHIBITORS OF GPR84” (Bayer Aktiengesellschaft, priority 2021, published 2024)
pIC50: −log10 of the molar value.

Target: T1, human GPR84 receptor (Homo sapiens, UniProt Q9NQS5)
T1 construct: frozen aliquots prepared by acCELLerate; host or cells: CHO-K1
Assay: cAMP HTRF assay for identification of cellular GPR84 antagonists
Assay type: cell-based
Conditions: CHO-K1 cells stably expressing human GPR84; Forskolin plus agonist 6-OAU; cAMP HTRF readout; average or median values
Method in brief: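 CHO-K1 cells stably expressing human GPR84, preincubated with compound 30 min at room temperature, then stimulated 30 min with 6-OAU (EC80) plus forskolin (EC90). cAMP measured by HTRF 665/620 nm ratio after 60 min lysis; 11 concentrations from 20 μM to 0.07 nM in duplicate, IC50 by 4-parameter fit.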

T1 sequence (Q9NQS5 whole entry): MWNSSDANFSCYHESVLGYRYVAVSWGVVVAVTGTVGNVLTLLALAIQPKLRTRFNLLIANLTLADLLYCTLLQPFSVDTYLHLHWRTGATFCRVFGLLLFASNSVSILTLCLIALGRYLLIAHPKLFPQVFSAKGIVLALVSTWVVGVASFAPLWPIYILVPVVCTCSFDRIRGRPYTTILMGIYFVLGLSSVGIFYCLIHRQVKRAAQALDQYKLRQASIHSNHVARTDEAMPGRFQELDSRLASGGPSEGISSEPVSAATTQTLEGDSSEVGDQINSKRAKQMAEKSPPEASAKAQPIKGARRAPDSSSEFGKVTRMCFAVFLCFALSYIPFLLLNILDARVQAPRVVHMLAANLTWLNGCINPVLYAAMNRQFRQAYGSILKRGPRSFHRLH

Row | pIC50 | Structure (SMILES)
1 | 4.79 | Cc1c(C(=O)N2CCC[C@@H]2C(N)=O)oc2c1-c1nn(Cc3ccc(Cl)cc3)cc1CC2 [Example 82, 1-{2-[(4-chlorophenyl)methyl]-8-methyl-4,5-dihydro-2H-furo[2,3-g]indazole-7-carbonyl}-D-prolinamide]
2 | 6.55 | Cc1c(C(=O)NCc2ccccn2)oc2c1-c1nn(Cc3ccc(Cl)cc3)cc1CC2 [Example 39, 2-[(4-chlorophenyl)methyl]-8-methyl-N-[(pyridin-2-yl)methyl]-4,5-dihydro-2H-furo[2,3-g]indazole-7-carboxamide]
3 | 4.72 | Cc1c(C(=O)N2CCS(=O)(=O)CC2)oc2c1-c1nn(Cc3ccc(Cl)cc3)cc1CC2 [Example 90]
4 | 5.03 | Cc1c(C(=O)N(C)Cc2cccnc2)oc2c1-c1nn(Cc3ccc(Cl)cc3)cc1CC2 [Example 69, 2-[(4-chlorophenyl)methyl]-N,8-dimethyl-N-[(pyridin-3-yl)methyl]-4,5-dihydro-2H-furo[2,3-g]indazole-7-carboxamide]
5 | 6.14 | Cc1ccccc1Cn1cc2c(n1)-c1c(oc(C(=O)NCC3CCCN3)c1C)CC2 (single isomer, unassigned) [Example 7-1]
6 | 5.31 | Cc1c(C(=O)NCCC(N)=O)oc2c1-c1nn(Cc3ccc(Cl)cc3)cc1CC2 [Example 56, N-(3-amino-3-oxopropyl)-2-[(4-chlorophenyl)methyl]-8-methyl-4,5-dihydro-2H-furo[2,3-g]indazole-7-carboxamide]
7 | 5.79 | Cc1c(C(=O)NCCN2CCC2)oc2c1-c1nn(Cc3ccc(Cl)cc3)cc1CC2 [Example 26, N-[2-(azetidin-1-yl)ethyl]-2-[(4-chlorophenyl)methyl]-8-methyl-4,5-dihydro-2H-furo[2,3-g]indazole-7-carboxamide]
8 | 6.47 | Cc1ccc(CNC(=O)c2oc3c(c2C)-c2nn(Cc4ccc(Cl)cc4)cc2CC3)cc1 [Example 22, 2-[(4-chlorophenyl)methyl]-8-methyl-N-[(4-methylphenyl)methyl]-4,5-dihydro-2H-furo[2,3-g]indazole-7-carboxamide]
9 | 5.61 | COCCNC(=O)CNC(=O)c1oc2c(c1C)-c1nn(Cc3ccc(Cl)cc3)cc1CC2 [Example 32, 2-[(4-chlorophenyl)methyl]-N-{2-[(2-methoxyethyl)amino]-2-oxoethyl}-8-methyl-4,5-dihydro-2H-furo[2,3-g]indazole-7-carboxamide]
10 | 5.13 | Cc1c(C(=O)NCC(F)F)oc2c1-c1nn(Cc3ccc(Cl)cc3)cc1CC2 [Example 65, 2-[(4-chlorophenyl)methyl]-N-(2,2-difluoroethyl)-8-methyl-4,5-dihydro-2H-furo[2,3-g]indazole-7-carboxamide]
11 | 5.48 | Cc1c(C(=O)NCC(=O)NC2CC2)oc2c1-c1nn(Cc3ccc(Cl)cc3)cc1CC2 [Example 33, 2-[(4-chlorophenyl)methyl]-N-[2-(cyclopropylamino)-2-oxoethyl]-8-methyl-4,5-dihydro-2H-furo[2,3-g]indazole-7-carboxamide]
12 | 5.94 | Cc1c(C(=O)NCC(=O)N2CCCC2)oc2c1-c1nn(Cc3ccc(Cl)cc3)cc1CC2 [Example 34, 2-[(4-chlorophenyl)methyl]-8-methyl-N-[2-oxo-2-(pyrrolidin-1-yl)ethyl]-4,5-dihydro-2H-furo[2,3-g]indazole-7-carboxamide]
13 | 5.57 | Cc1c(C(=O)NCC2CC2)oc2c1-c1nn(Cc3ccc(Cl)cc3)cc1CC2 [Example 51, 2-[(4-chlorophenyl)methyl]-N-(cyclopropylmethyl)-8-methyl-4,5-dihydro-2H-furo[2,3-g]indazole-7-carboxamide]
14 | 4.76 | Cc1c(C(=O)N(C)Cc2ccccn2)oc2c1-c1nn(Cc3ccc(Cl)cc3)cc1CC2 [Example 89, 2-[(4-chlorophenyl)methyl]-N,8-dimethyl-N-[(pyridin-2-yl)methyl]-4,5-dihydro-2H-furo[2,3-g]indazole-7-carboxamide]
15 | 5.98 | Cc1c(C(=O)NCCN2CCCC2)oc2c1-c1nn(Cc3ccc(Cl)cc3)cc1CC2 [Example 24, 2-[(4-chlorophenyl)methyl]-8-methyl-N-[2-(pyrrolidin-1-yl)ethyl]-4,5-dihydro-2H-furo[2,3-g]indazole-7-carboxamide]
16 | 6.80 | Cc1c(C(=O)NCC2CCCO2)oc2c1-c1nn(Cc3ccc(F)cc3Cl)cc1CC2 (racemic) [Example 92, 2-[(2-chloro-4-fluorophenyl)methyl]-8-methyl-N-[(2RS)-tetrahydrofuran-2-ylmethyl]-4,5-dihydro-2H-furo[2,3-g]indazole-7-carboxamide]
17 | 6.74 | Cc1c(C(=O)NCc2ccn(C)n2)oc2c1-c1nn(Cc3ccc(Cl)cc3)cc1CC2 [Example 37, 2-[(4-chlorophenyl)methyl]-8-methyl-N-[(1-methyl-1H-pyrazol-3-yl)methyl]-4,5-dihydro-2H-furo[2,3-g]indazole-7-carboxamide]
18 | 5.86 | Cc1c(C(=O)NCCN2CCCCC2)oc2c1-c1nn(Cc3ccc(Cl)cc3)cc1CC2 [Example 25, 2-[(4-chlorophenyl)methyl]-8-methyl-N-[2-(piperidin-1-yl)ethyl]-4,5-dihydro-2H-furo[2,3-g]indazole-7-carboxamide]

Row | pIC50 | Structure (SMILES)
19 | ≤ 4.70 | Cc1c(C(=O)N2CCC[C@H]2C(N)=O)oc2c1-c1nn(Cc3ccc(Cl)cc3)cc1CC2 [Example 91, 1-{2-[(4-chlorophenyl)methyl]-8-methyl-4,5-dihydro-2H-furo[2,3-g]indazole-7-carbonyl}-L-prolinamide]
20 | 5.28 | Cc1c(C(=O)NCC2CCS(=O)(=O)C2)oc2c1-c1nn(Cc3ccc(Cl)cc3)cc1CC2 (centres unmarked) [Example 59, 2-(4-chlorobenzyl)-N-[(1,1-dioxidotetrahydrothiophen-3-yl)methyl]-8-methyl-4,5-dihydro-2H-furo[2,3-g]indazole-7-carboxamide]
21 | 5.53 | Cc1c(C(=O)NCC2CCOCC2)oc2c1-c1nn(Cc3ccc(Cl)cc3)cc1CC2 [Example 52, 2-[(4-chlorophenyl)methyl]-8-methyl-N-[(oxan-4-yl)methyl]-4,5-dihydro-2H-furo[2,3-g]indazole-7-carboxamide]
22 | 4.79 | Cc1c(C(=O)N(C)Cc2ccnn2C)oc2c1-c1nn(Cc3ccc(Cl)cc3)cc1CC2 [Example 84, 2-[(4-chlorophenyl)methyl]-N,8-dimethyl-N-[(1-methyl-1H-pyrazol-5-yl)methyl]-4,5-dihydro-2H-furo[2,3-g]indazole-7-carboxamide]
23 | 4.81 | Cc1c(C(=O)N2CCC(CO)CC2)oc2c1-c1nn(Cc3ccc(Cl)cc3)cc1CC2 [Example 79, {2-[(4-chlorophenyl)methyl]-8-methyl-4,5-dihydro-2H-furo[2,3-g]indazol-7-yl}[4-(hydroxymethyl)piperidin-1-yl]methanone]
24 | 6.10 | CC(=O)Nc1ccc(CNC(=O)c2oc3c(c2C)-c2nn(Cc4ccc(Cl)cc4)cc2CC3)cc1 [Example 43, N-[(4-acetamidophenyl)methyl]-2-[(4-chlorophenyl)methyl]-8-methyl-4,5-dihydro-2H-furo[2,3-g]indazole-7-carboxamide]
25 | 5.02 | Cc1c(C(=O)N2CCC(O)CC2)oc2c1-c1nn(Cc3ccc(Cl)cc3)cc1CC2 [Example 71, {2-[(4-chlorophenyl)methyl]-8-methyl-4,5-dihydro-2H-furo[2,3-g]indazol-7-yl}(4-hydroxypiperidin-1-yl)methanone]
26 | 4.86 | Cc1c(C(=O)NC2CCOCC2)oc2c1-c1nn(Cc3ccc(Cl)cc3)cc1CC2 [Example 77, 2-(4-chlorobenzyl)-8-methyl-N-(tetrahydro-2H-pyran-4-yl)-4,5-dihydro-2H-furo[2,3-g]indazole-7-carboxamide]
27 | 7.74 | Cc1ccc(Cn2cc3c(n2)-c2c(oc(C(=O)NC[C@@H]4CCCO4)c2C)CC3)cc1 [Example 1, 8-methyl-2-[(4-methylphenyl)methyl]-N-[(2S)-tetrahydrofuran-2-ylmethyl]-4,5-dihydro-2H-furo[2,3-g]indazole-7-carboxamide]
28 | 5.78 | Cc1c(C(=O)NCc2ccnn2C)oc2c1-c1nn(Cc3ccc(Cl)cc3)cc1CC2 [Example 46, 2-[(4-chlorophenyl)methyl]-8-methyl-N-[(1-methyl-1H-pyrazol-5-yl)methyl]-4,5-dihydro-2H-furo[2,3-g]indazole-7-carboxamide]
29 | 6.28 | Cc1c(C(=O)NCc2cc[nH]n2)oc2c1-c1nn(Cc3ccc(Cl)cc3)cc1CC2 [Example 41, 2-[(4-chlorophenyl)methyl]-8-methyl-N-[(1H-pyrazol-3-yl)methyl]-4,5-dihydro-2H-furo[2,3-g]indazole-7-carboxamide]
30 | 6.05 | Cc1c(C(=O)NCc2cccn2C)oc2c1-c1nn(Cc3ccc(Cl)cc3)cc1CC2 [Example 44, 2-[(4-chlorophenyl)methyl]-8-methyl-N-[(1-methyl-1H-pyrrol-2-yl)methyl]-4,5-dihydro-2H-furo[2,3-g]indazole-7-carboxamide]
31 | 6.17 | Cc1ccccc1Cn1cc2c(n1)-c1c(oc(C(=O)NCC3CCCN3)c1C)CC2 (racemic) [Example 7, 8-methyl-2-[(2-methylphenyl)methyl]-N-{[(2RS)-pyrrolidin-2-yl]methyl}-4,5-dihydro-2H-furo[2,3-g]indazole-7-carboxamide]
32 | 4.84 | Cc1c(C(=O)NCc2ncc[nH]2)oc2c1-c1nn(Cc3ccc(Cl)cc3)cc1CC2 [Example 78, 2-[(4-chlorophenyl)methyl]-N-[(1H-imidazol-2-yl)methyl]-8-methyl-4,5-dihydro-2H-furo[2,3-g]indazole-7-carboxamide]
33 | 6.26 | Cc1c(C(=O)NCC2CCCO2)oc2c1-c1nn(Cc3cccc(Cl)c3)cc1CC2 (single isomer, unassigned) [Example 15-2]
34 | 7.06 | Cc1c(C(=O)NCC2CCCO2)oc2c1-c1nn(Cc3cccc(Cl)c3)cc1CC2 (single isomer, unassigned) [Example 15-1]
35 | 4.76 | Cc1c(C(=O)N2CCCC(C(N)=O)C2)oc2c1-c1nn(Cc3ccc(Cl)cc3)cc1CC2 (centres unmarked) [Example 88, 1-{2-[(4-chlorophenyl)methyl]-8-methyl-4,5-dihydro-2H-furo[2,3-g]indazole-7-carbonyl}piperidine-3-carboxamide]
